Experimental data published in patent publication US20250353841A1 (BIOGEN MA INC., priority 2022, published 2025).

Test system: mutant Huntington (HTT) protein
Assay: HTT Mutant HTRF iPSC assay (mHTT protein lowering)
Type: cell-based
Settings: human iPSC derived from a HTT patient with a poly-Q49 mutation

Q: `Cc1cn2nc(-c3cc(F)c4nc(C5CC=CC5)cn4c3)cc(C)c2n1` [Compound 196, 6-(2-cyclopent-3-en-1-yl-8-fluoro-imidazo[1,2-a]pyridin-6-yl)-2,8-dimethyl-imidazo[1,2-b]pyridazine] was tested. Which IC50 did it give?
A: 100 to 1000 nM

Q: For `CCc1cc(-c2cc(F)c3nc(C4CCNCC4)cn3c2)nn2cc(C)nc12` [Compound 197, 8-ethyl-6-(8-fluoro-2-(piperidin-4-yl)imidazo[1,2-a]pyridin-6-yl)-2-methylimidazo[1,2-b]pyridazine], which IC50 is on record?
A: < 100 nM

Q: With `Fc1cc(-c2ncc3cccn3n2)cn2cc(C3CCNCC3)nc12` [Compound 198, 2-(8-fluoro-2-(piperidin-4-yl)imidazo[1,2-a]pyridin-6-yl)pyrrolo[2,1-f][1,2,4]triazine] as the molecule, how does the IC50 read?
A: 100 to 1000 nM

Q: `Fc1cc(-c2ccn3nc(Br)cc3n2)cn2cc(C3CCNCC3)nc12` [Compound 199, 2-bromo-5-(8-fluoro-2-(piperidin-4-yl)imidazo[1,2-a]pyridin-6-yl)pyrazolo[1,5-a]pyrimidine] was tested. Which IC50 did it give?
A: 100 to 1000 nM

Q: `Cc1cc2nc(-c3cc(F)c4nc(C5CCNCC5)cn4c3)ccn2n1` [Compound 200, 5-(8-fluoro-2-(piperidin-4-yl)imidazo[1,2-a]pyridin-6-yl)-2-methylpyrazolo[1,5-a]pyrimidine] was tested. Which IC50 did it give?
A: < 100 nM

Q: How did the IC50 turn out when `Cc1cc2nc(-c3cc(F)c4nc(C5CCNCC5)cn4c3)ncc2s1` [Compound 201, 2-(8-fluoro-2-(piperidin-4-yl)imidazo[1,2-a]pyridin-6-yl)-6-methylthieno[3,2-d]pyrimidine] was run?
A: 100 to 1000 nM

Q: How did the IC50 turn out when `Cc1cn2nc(-c3cc(F)c4nc([C@H]5C[C@@]6(CCN(C)C6)C5)cn4c3)cc(C)c2n1` [Compound 202, 6-(8-fluoro-2-((2r,4r)-6-methyl-6-azaspiro[3.4]octan-2-yl)imidazo[1,2-a]pyridin-6-yl)-2,8-dimethylimidazo[1,2-b]pyridazine] was run?
A: < 100 nM

Q: With `Cc1cn2nc(-c3cc(F)c4nc([C@H]5C[C@]6(CCN(C)C6)C5)cn4c3)cc(C)c2n1` [Compound 203, 6-(8-fluoro-2-((2s,4s)-6-methyl-6-azaspiro[3.4]octan-2-yl)imidazo[1,2-a]pyridin-6-yl)-2,8-dimethylimidazo[1,2-b]pyridazine] as the molecule, how does the IC50 read?
A: < 100 nM

Q: With `Cc1cn2nc(-c3cc(F)c4nc([C@H]5[C@@H]6CN(C7CC7)C[C@@H]65)cn4c3)cc(C)c2n1` [Compound 204, 6-(2-((1R,5S,6r)-3-cyclopropyl-3-azabicyclo[3.1.0]hexan-6-yl)-8-fluoroimidazo[1,2-a]pyridin-6-yl)-2,8-dimethylimidazo[1,2-b]pyridazine] as the molecule, how does the IC50 read?
A: 100 to 1000 nM

Q: With `COC1CC1N1CCC(c2cn3cc(-c4cc(C)c5nc(C)cn5n4)cc(F)c3n2)CC1` (stereo not drawn) [Compound 205, 6-(8-fluoro-2-(1-(2-methoxycyclopropyl)piperidin-4-yl)imidazo[1,2-a]pyridin-6-yl)-2,8-dimethylimidazo[1,2-b]pyridazine] as the molecule, how does the IC50 read?
A: 100 to 1000 nM

Q: `Cc1cn2nc(-c3cc(F)c4nc(C5CC6CCC(C5)N6)cn4c3)cc(C)c2n1` (stereo not drawn) [Compound 206] was tested. Which IC50 did it give?
A: < 100 nM

Q: Which IC50 does the source give for `[2H]C1(N2CCC(c3cn4cc(-c5cc(C)c6nc(C)cn6n5)cc(F)c4n3)CC2)CC1` [Compound 207, 6-(2-(1-(cyclopropyl-1-d)piperidin-4-yl)-8-fluoroimidazo[1,2-a]pyridin-6-yl)-2,8-dimethylimidazo[1,2-b]pyridazine] here?
A: < 100 nM

Q: With `Cc1cn2nc(-c3cc(F)c4nc(C56CC(N(C)C7CC7)(C5)C6)cn4c3)cc(C)c2n1` [Compound 208, N-cyclopropyl-3-(6-(2,8-dimethylimidazo[1,2-b]pyridazin-6-yl)-8-fluoroimidazo[1,2-a]pyridin-2-yl)-N-methylbicyclo[1.1.1] pentan-1-amine] as the molecule, how does the IC50 read?
A: 100 to 1000 nM

Q: `Cc1cn2nc(-c3cc(F)c4nc(C5CCN(C6COC6(C)C)CC5)cn4c3)cc(C)c2n1` (stereo not drawn) [Compound 210, 6-(2-(1-(2,2-dimethyloxetan-3-yl)piperidin-4-yl)-8-fluoroimidazo[1,2-a]pyridin-6-yl)-2,8-dimethylimidazo[1,2-b]pyridazine] was tested. Which IC50 did it give?
A: 100 to 1000 nM

Q: `Cc1cn2nc(-c3cc(F)c4nc([C@H]5[C@@H]6CN(C7CCC7)C[C@@H]65)cn4c3)cc(C)c2n1` [Compound 211, 6-(2-((1R,5S,6r)-3-cyclobutyl-3-azabicyclo[3.1.0]hexan-6-yl)-8-fluoroimidazo[1,2-a]pyridin-6-yl)-2,8-dimethylimidazo[1,2-b]pyridazine] was tested. Which IC50 did it give?
A: < 100 nM

Q: `Cc1cn2nc(-c3cc(F)c4nc([C@H]5[C@@H]6CN(CC7CC7)C[C@@H]65)cn4c3)cc(C)c2n1` [Compound 212, 6-(2-((1R,5S,6r)-3-(cyclopropylmethyl)-3-azabicyclo[3.1.0]hexan-6-yl)-8-fluoroimidazo[1,2-a]pyridin-6-yl)-2,8-dimethylimidazo[1,2-b]pyridazine] was tested. Which IC50 did it give?
A: < 100 nM

Q: `Cc1cn2nc(-c3cc(F)c4nc(C5CCN(C6COC6C)CC5)cn4c3)cc(C)c2n1` (stereo not drawn) [Compound 213, 6-(8-fluoro-2-(1-(2-methyloxetan-3-yl)piperidin-4-yl)imidazo[1,2-a]pyridin-6-yl)-2,8-dimethylimidazo[1,2-b]pyridazine] was tested. Which IC50 did it give?
A: 100 to 1000 nM

Q: With `Cc1cn2nc(-c3cc(F)c4nc([C@H]5C[C@@H](C)N[C@@H](C)C5)cn4c3)cc(C)c2n1` [Compound 215, 6-(2-((2S,4r,6R)-2,6-dimethylpiperidin-4-yl)-8-fluoroimidazo[1,2-a]pyridin-6-yl)-2,8-dimethylimidazo[1,2-b]pyridazine] as the molecule, how does the IC50 read?
A: < 100 nM

Q: For `Cc1cn2nc(-c3cc(F)c4nc([C@H]5[C@@H]6CN(CCF)C[C@@H]65)cn4c3)cc(C)c2n1` [Compound 216, 6-(8-fluoro-2-((1R,5S,6r)-3-(2-fluoroethyl)-3-azabicyclo[3.1.0]hexan-6-yl)imidazo[1,2-a]pyridin-6-yl)-2,8-dimethylimidazo[1,2-b]pyridazine], which IC50 is on record?
A: 100 to 1000 nM

Q: For `Cc1cn2nc(-c3cc(F)c4nc([C@H]5[C@@H]6CN(CC(F)F)C[C@@H]65)cn4c3)cc(C)c2n1` [Compound 217, 6-(2-((1R,5S,6r)-3-(2,2-difluoroethyl)-3-azabicyclo[3.1.0]hexan-6-yl)-8-fluoroimidazo[1,2-a]pyridin-6-yl)-2,8-dimethylimidazo[1,2-b]pyridazine], which IC50 is on record?
A: 100 to 1000 nM

Q: `Cc1cn2nc(-c3cc(F)c4nc([C@H]5[C@@H]6CN(C7CC(F)(F)C7)C[C@@H]65)cn4c3)cc(C)c2n1` [Compound 218, 6-(2-((1R,5S,6r)-3-(3,3-difluorocyclobutyl)-3-azabicyclo[3.1.0]hexan-6-yl)-8-fluoroimidazo[1,2-a]pyridin-6-yl)-2,8-dimethylimidazo[1,2-b]pyridazine] was tested. Which IC50 did it give?
A: 100 to 1000 nM

Q: Which IC50 does the source give for `Cc1nc2ccc(-c3cc(F)c4nc([C@H]5[C@@H]6CN(C)C[C@@H]65)cn4c3)nn2n1` [Compound 219, 6-(8-fluoro-2-((1R,5S,6r)-3-methyl-3-azabicyclo[3.1.0]hexan-6-yl)imidazo[1,2-a]pyridin-6-yl)-2-methyl-[1,2,4]triazolo[1,5-b]pyridazine] here?
A: 100 to 1000 nM

Q: For `Cc1cn2nc(-c3cc(F)c4nc(C5CCN(C)CC5)cn4c3)cc2c(C)n1` [Compound 220, 2-(8-fluoro-2-(1-methylpiperidin-4-yl)imidazo[1,2-a]pyridin-6-yl)-4,6-dimethylpyrazolo[1,5-a]pyrazine], which IC50 is on record?
A: < 100 nM

Q: For `COCCN1CCC(c2cn3cc(-c4cc5c(C)nc(C)cn5n4)cc(F)c3n2)CC1` [Compound 221, 2-(8-fluoro-2-(1-(2-methoxyethyl)piperidin-4-yl)imidazo[1,2-a]pyridin-6-yl)-4,6-dimethylpyrazolo[1,5-a]pyrazine], which IC50 is on record?
A: < 100 nM
